Measured values: patent US6451846B1, “Isocoumarin derivatives inhibiting angiogenesis” (Korea Research Institute of Bioscience and Biotechnology, priority 1999, dated 2002)
“Also recorded” adds a separate entry of the source.

How the values were obtained:
[1] = Acute toxicity test with rat; details: in vivo, 300 mg/kg; for Death and clinical symptoms / Toxic signs in weight change, serologic test, serobiochemical test, corpse examination: po; for LD50: rat, SD-rats, single oral administration, read-out: lethal dose (LD50)
Experimental: Specific pathogen-free (SPF) SD-rats (six weeks old) were used for the test of acute toxicity. Suspensions of the compounds of formulae 2 and 3 in 0.5% methyl cellulose were orally administered once at a dose of 300 mg/kg/10 ml to the rats. After the administration, the animals were observed as to their death, clinical symptoms and weight change, and serological and serobiochemically tested. An autopsy was made over the rats with the naked eye to observe whether their abdominal and thoracic organs were damaged. […] The compounds tested caused no toxic changes rats over the rats to the dose of 300 mg/lkg and thus, found to be safe compounds with a lethal dose (LD50) of at least 300 mg/kg when being administered via an oral route.

HUVEC = assay: Cytotoxicity to HUVEC; assay type: cell-based, human; details: same concentrations as in the angiogenesis inhibition
[2] = test system: human umbilical vein endothelial cells (HUVEC); assay: Inhibition of tube formation in human endothelial cells on Matrigel; assay type: cell-based; details: for inhibition at 0.5 µg/mL: 0.5 μg/ml; for inhibition at 1 µg/mL: 1.0 μg/ml
Text: In order to determine the inhibitory effect of the isocoumarin derivatives against the angiogenesis, in vitro, endothelial cells, HUVEC (human umbilical vein endothelial cell) are selected. Under a specific culture condition, endothelial cells are migrated and differentiated into capillary tubes. Similar to the angiogenesis in vivo, the tube formation assay may be a good model to determine the influence of the isocoumarin derivatives on angiogenesis.
Various concentrations of the two isocoumarin derivatives are added to endothelial cells to monitor under a microscope whether the isocoumarin derivatives inhibited the differentiation of endothelial cells into capillary tubes. From this experiment, the two isocoumarin derivatives are found to inhibit the angiogenesis in concentration-dependent manners. […] However, the differentiation of HUVEC into a capillary tube is inhibited by 6,8-dihydroxy-4-acetyl-isocoumarin down to the concentration of as low as 0.2 μg/ml.
To determine the inhibitory effect of the two compounds obtained in Example 1 on the angiogenesis in vitro, human umbilical vein endothelial cells (HUVEC) were used as a model on the basis that they are migrated and differentiated into capillary tubes on Matrigel HUVEC was cultured in a gelatin-coated culture flask with an M199 medium supplemented with 20% FBS, 2 ng/ml bFGF and 100 μg/ml heparin at 37° C. incubator in a humidified atmosphere containing 5% CO2. The cultured HUVEC were treated with trypsin/EDTA to make a single cell suspension, the cells were plated on Matrigel coated 96-well plates with an M199 medium supplemented with 20% FBS, 2 ng/ml bFGF and 100 μg/ml heparin) at a density of 2×10^4 cells/well. The two compounds obtained in Example 1 were independently added at various concentrations into the wells and the plate was incubated for 18-48 hours in a CO2 incubator. The formation of capillary-like tube was monitored under a microscope during the incubation. The cells in the well containing vehicle (DMSO) became to be robuster and longer hollow tube networks as incubation time went on, but the tubes in the wells containing samples were broken and shortened. The inhibitory activity against tube formation was compared with control by measuring the length of the capillary tubes formed.

[3] = test system: chorioallantoic membranes at 4.5-day old chick embryo; assay: Chorioallantoic membrane (CAM) assay, inhibition of angiogenesis in vivo; details: positive eggs/used eggs × 100%
Experimental: Chorioallantoic membrane (CAM) assay was used to measure whether the two isocoumarin derivatives are effective to inhibit angiogenesis in vivo. Fertilized chick eggs were kept in a humidified incubator at 37° C. After 3 days incubation, egg albumin were removed with hypodermic needle to allow CAM and yolk sac to drop away from the shell membrane. On day 3.5, the shell was punched out and removed to be a circular window and the shell membrane was removed. For testing of angiogenesis inhibition, a pieces of thermanox coverslip was coated with various concentration of the isocoumarin derivatives. The thermanox coverslip was placed on the chorioallantoic membranes at 4.5-day old chick embryo. After 2 days incubation at 37° C., 10% fat emulsion was injected into chorioallantois and observed blood vessel formation during an embryogenesis or development procedure. As a positive control, retinoic acid was used and non-treated coverslip for negative control.
Chorioallantoic membrane (CAM) assay was used to measure whether the two compounds obtained in Example 1 are effective to inhibit angiogenesis in vivo. Fertilized chick eggs were kept in a humidified incubator at 37° C. After 3 days incubation, about 2 ml of egg albumin were removed with hypodermic needle to allow CAM and yolk sac to drop away from the shell membrane. On day 3.5, the shell was punched out and removed to be a circular window and the shell membrane was removed. For testing of angiogenesis inhibition, a pieces of thermanox coverslip was coated with the isocoumarin derivatives dissolved in ethanol at concentration of 1, 5 and 10 μg/coverslip and the ethanol was evaporated. The thermanox coverslip were placed on the chorioallantoic membranes at 4.5-day old chick embryo. After 2 days incubation at 37° C., 1-2 ml of 10% fat emulsion was injected into chorioallantois and observed blood vessel formation during an embryogenesis or development procedure under a microscope. As a positive control, 1 μg/egg of retinoic acid was used and a negative control was non-treated. coverslip.

[4] = Homo sapiens, length of capillary tubes vs control, read-out: Inhibitory activity (%) against tube formation

| Structure (SMILES) | Death and clinical symptoms [1] | Toxic signs in weight change, serologic test, serobiochemical test, corpse examination [1] | LD50 [1] | Cytotoxicity to HUVEC (HUVEC) | Lowest concentration still inhibiting differentiation of HUVEC into capillary tubes [2] | inhibition at 0.5 µg/mL [2, 4] | inhibition at 1 µg/mL [2, 4] | inhibition at 4 µg/mL ([2]; Homo sapiens, 4 μg/ml, length of capillary tubes vs control, read-out: Inhibitory activity (%) against tube formation) | inhibition at 10 µg/mL ([2]; Homo sapiens, 10 μg/ml, length of capillary tubes vs control, read-out: Inhibitory activity (%) against tube formation) | Inhibition rate (%) ([3]; 1 μg/egg) | Inhibition rate (%) ([3]; 5 μg/egg) | Inhibition rate (%) ([3]; 10 μg/egg) | Inhibition rate (%) ([3]; 10 μg/egg, listed as 6,8-dihydroxy-4-(1-hydroxyetyl)-isocoumarin) | inhibition at 0.05 µg/mL ([2]; Homo sapiens, 0.05 μg/ml, length of capillary tubes vs control, read-out: Inhibitory activity (%) against tube formation) | inhibition at 0.2 µg/mL ([2]; Homo sapiens, 0.2 μg/ml, length of capillary tubes vs control, read-out: Inhibitory activity (%) against tube formation) |
| --- | --- | --- | --- | --- | --- | --- | --- | --- | --- | --- | --- | --- | --- | --- | --- |
| CC(O)c1coc(=O)c2c(O)cc(O)cc12 (centres unmarked) [6,8-dihydroxy-4-(1-hydroxyethyl)-isocoumarin] | Neither sudden death nor noticeable clinical symptoms were detected | no toxic signs were observed | ≥ 300 mg/kg | did not show cytotoxicity | 4 µg/mL | 0% | 0% | 60% | 100% | 27.3% | 66.7% | 83.3% | 78.6% | – | – |
| CC(=O)c1coc(=O)c2c(O)cc(O)cc12 [6,8-dihydroxy-4-acetyl-isocoumarin] | Neither sudden death nor noticeable clinical symptoms were detected | no toxic signs were observed | ≥ 300 mg/kg | no cytotoxicity; also recorded: did not show cytotoxicity | 0.2 µg/mL | 85% | 100% | – | – | 50.0% | 83.3% | 93.3% | – | 0% | 50% |
| CC1=C(/C=C/C(C)=C/C=C/C(C)=C/C(=O)O)C(C)(C)CCC1 [retinoic acid, reference compound] | – | – | – | – | – | – | – | – | – | 79.2% | – | – | – | – | – |
